Values belong to the compound of their own block, whether it stands above or below them.
Assays:
SNF3-PDO = test: PDO drug response testing with CDK4/6 inhibitor and PARP inhibitor (CellTiter-Glo 3D cell survival assay); format: cell-based, human; details: for growth ability of SNF3-PDO: single drug; for PDO growth ability: SNF3 subtype and the non-SNF3 subtype (legend of FIGs. 31 and 32)
Method: (§1) Briefly, the fresh breast cancer tissue is cut into small pieces using a sterile surgical knife. The tissue was digested and resuspended in 10 mL of TAC buffer, incubated for 3 minutes to remove red blood cells, and passed through a […] cell strainer (Corning). For passaging, 5 ml of harvesting solution (Trevigen, 3700-100-01) was used to digest the basement membrane extract (BME), which was incubated on ice for 1 hour. Subsequently, the organoids were centrifuged at 350 g for 5 minutes, washed in digestion buffer, and centrifuged. Next, 3 mL of TrypLE Express (Invitrogen) was added, and the organoids were incubated at room temperature for 3 minutes and then mechanically dissociated into small cell clusters using a pipette. The organoids were passaged every 2-3 weeks at a dilution ratio of 1:2-3.
(§2) Drug response testing of triple-negative breast cancer (TNBC) organoids was conducted according to the method of the published paper (Xiao Y, Ma D, Yang YS, Yang F, Ding JH, Gong Y, et al. Comprehensive metabolomics expands precision medicine for triple-negative breast cancer. CELL RES. 2022;32(5):477-90 doi 10.1038/s41422-022-00614-0.). Organoids without undergoing organoid drug treatment were harvested in good condition and digested into single cells. 25 microliters of organoid suspension was added to black cell-repellent surface of a 384-well plate with transparent bottoms (Greiner 781976-SIN) at 1 × 10^3 to 3 × 10^3 cells per well, and cultured for an additional 5-6 days prior to drug treatment. Organoids were co-cultured with the drug for 1 week and then tested for survival. According to the manufacturer's instructions, organoid cell survival rate was assessed by the CellTiter-Glo 3D cell survival assay (Promega, G9683).
In order to gain an in-depth understanding of the biological characteristics of the SNF3 subtype, low-concentration 4-hydroxytamoxifen was used to induce PDO over an extended period to establish a model for studying acquired resistance to endocrine therapy (Xi Jin, Yi-Fan Zhou, Ding Ma, Shen Zhao, Cai-Jin Lin, Yi Xiao, et al. Integrative Molecular Classification of HR+/HER2- Breast Cancer Guides Precision Treatment. Nature Genetics under minor revision. 2023.02.26.).
In view of the high enrichment of SNF3 tumors in homologous recombination deficiency score, chromosomal instability, and cell cycle activity, the response of SNF3 PDOs to CDK4/6 inhibitors and PARP inhibitors was tested. […] In addition, regardless of BRCA mutation, the homologous recombination deficiency score of SNF3 tumors was much higher (FIG. 35). The above results indicated the therapeutic susceptibility of the SNF3 subtype to CDK4/6 inhibitors and PARP inhibitors; therefore, CDK4/6 inhibitors and PARP inhibitors or combinations thereof may be potential accurate treatment strategies for SNF3 tumors.

four subtypes of PDOs = test: PDO drug response testing of traditional endocrine therapies (CellTiter-Glo 3D cell survival assay); format: cell-based, human; details: compared among four subtypes of PDOs (n = 88)
Method: as §1, §2
The sensitivity of four subtypes of PDOs (n = 88) to three traditional endocrine therapies (estrogen deprivation, 4-hydroxytamoxifen (4OHtam), and fulvestrant) was compared on a PDO drug testing platform. […] In order to investigate the potential mechanism of SNF1 tumor sensitivity to endocrine therapy, the endocrine therapy-related pathways in the multi-omics data from Fudan University Shanghai Cancer Center were analyzed. […] In addition, the expression of endocrine therapy resistance pathways was also compared among the four subtypes.

SNF4 tumors = test: PDO drug sensitivity testing of tyrosine kinase inhibitors; format: cell-based, human; details: for IC50: SNF4 tumors compared with other subtypes, PDO
Method: as §1, §2
Next, based on the identified key receptors, 12 tyrosine kinase inhibitors were selected to construct a "tyrosine kinase inhibitor combination," including tyrosine kinase inhibitors targeting the ErbB family (afatinib, lapatinib, pyrotinib), the PDGFR family (axitinib, sunitinib), the VEGFR family (foretinib, apatinib), the TAM receptor (sitravatinib), as well as some multi-target tyrosine kinase inhibitors (sorafenib, vandetanib, regorafenib, famitinib). The combination is used for PDO drug sensitivity testing to verify the tyrosine kinase inhibitor most sensitive to SNF4 tumors (FIG. 38). […] Combining the drug sensitivity results of the above 12 tyrosine kinase inhibitors and the targets of the above four drugs, VEGFR and PDGFR signaling were preliminarily identified as potential therapeutic vulnerabilities of SNF4 tumors.

[1] = tested on: signaling pathway activated by PDGF in SNF4 tumor; test: PDGF-activated signaling pathway changes after tyrosine kinase inhibitor treatment; format: cell-based, human
[2] = tested on: SNF4 subtype cancer-associated fibroblasts (CAF); test: Efficacy on patient-derived cancer cells co-cultured with fibroblasts; format: cell-based, human; details: sorafenib (1 µM)
Method: (F-G) The efficacy of sorafenib (1 µM) on patient-derived cancer cells co-cultured with fibroblasts. Scale bar: 100 micrometers. Cancer cells are treated with sorafenib three times. One representative experiment is shown. The experiment is repeated three times, and the results are similar.

[3] = tested on: advanced HR+/HER2- breast cancer; test: Real-world retrospective clinical cohort of advanced HR+/HER2- breast cancer; format: in vivo, human; details: SNF3 and SNF4 subtypes; advanced cohort of FUSCC, n = 277; p = 0.033
Description: Frequency tables and summary statistics were used to characterize data distribution. Wilcoxon test and Kruskal-Wallis test were used to compare continuous variables and categorical variables, and Pearson chi-square test and Fisher's exact test were used to compare unordered categorical variables. Survival curves were established using the Kaplan-Meier product-limit method and compared with the log-rank test to obtain RFS and PFS. RFS was defined as the time from diagnosis to the first recurrence or diagnosis of contralateral breast cancer. PFS was defined as the interval from the start of treatment to disease progression or death due to any cause (whichever occurs first), or to the time of the last PFS assessment for patients with progression-free survival. Univariate and multivariate Cox proportional hazards regression models were constructed to evaluate the hazard ratio (HR) and the corresponding 95% confidence interval (CI). All analyses were performed using R software package version 3.6.1 (https://cran.r-project.org/).
For deeper insights into the landscape of metastatic HR+/HER2- breast cancer, we constructed a real-world cohort of patients with advanced HR+/HER2- breast cancer from FUSCC and invited other three centers to participate in our real-world study. […] Their tumor progression were evaluated according to RECIST v1.1.

Compound: O=C(c1cc(Cc2n[nH]c(=O)c3ccccc23)ccc1F)N1CCN(C(=O)C2CC2)CC1 [olaparib]
growth ability of SNF3-PDO (SNF3-PDO): significantly inhibited
PDO growth ability (SNF3-PDO): significantly inhibited

Compound: CCN1CCN(Cc2ccc(Nc3ncc(F)c(-c4cc(F)c5nc(C)n(C(C)C)c5c4)n3)nc2)CC1 [abemaciclib, N-[5-[(4-ethyl-1-piperazinyl)methyl]-2-pyridinyl]-5-fluoro-4-[4-fluoro-2-methyl-1-(1-methylethyl)-1H-benzimidazol-6-yl]-2-pyrimidinamine]
growth ability of SNF3-PDO (SNF3-PDO): significantly inhibited
PDO growth ability (SNF3-PDO): significantly inhibited

Compound: 4-hydroxytamoxifen
survival rate (four subtypes of PDOs; SNF1-PDO): lowest survival rate
survival rate (four subtypes of PDOs; SNF4-PDO): relatively higher survival rate
sensitivity to endocrine therapy (SNF3-PDO; SNF3-PDO after long-term induction with low-concentration 4-hydroxytamoxifen, unlike other subtypes): less sensitive to endocrine therapy

IC50 (SNF4 tumors): lower than that of other subtypes
signaling pathway activated by PDGF [1]: significantly downregulated
Compound: CCN(CC)CCN1CCc2[nH]c(/C=C3\C(=O)Nc4ccc(F)cc43)c(C)c2C1=O [famitinib]

IC50 (SNF4 tumors): lower than that of other subtypes
signaling pathway activated by PDGF [1]: significantly downregulated
Compound: CNC(=O)c1cc(Oc2ccc(NC(=O)Nc3ccc(Cl)c(C(F)(F)F)c3)cc2)ccn1 [sorafenib]
sensitivity of SNF4 subtype cancer-associated fibroblasts (CAF) [2]: sensitive

IC50 (SNF4 tumors): lower than that of other subtypes
Compound: CNC(=O)c1cc(Oc2ccc(NC(=O)Nc3ccc(Cl)c(C(F)(F)F)c3)c(F)c2)ccn1 [regorafenib]
cell viability of SNF4 tumors (SNF4 tumors; after treatment, Wilcoxon test): significantly decreased

Compound: C[C@]12CC[C@@H]3c4ccc(O)cc4C[C@@H](CCCCCCCCC[S+]([O-])CCCC(F)(F)C(F)(F)F)[C@H]3[C@@H]1CC[C@@H]2O (some centres unmarked) [fulvestrant]
progression-free survival (PFS) [3]: worse progression-free survival
survival rate (four subtypes of PDOs; SNF1-PDO): lowest survival rate
survival rate (four subtypes of PDOs; SNF4-PDO): relatively higher survival rate

From patent publication EP4730355A1, “TYPING SYSTEM AND METHOD FOR HR-POSITIVE/HER2-NEGATIVE BREAST CANCER” (Lumitype Medical (Huzhou) Co., Ltd., priority 2023, dated 2024)
